Experimental data from paper PMC8395040 (International Journal of Molecular Sciences, 2021).

Legend:
HT29 = assay: Colony formation assay, HT29; assay type: cell-based, human; conditions: 5 µM, 14 d
Experimental: HT29, HCT116, H1975 and HEK293 cells were seeded in a 6-well plate (1 × 10^4 cells per well) and incubated overnight in DMEM F12 supplemented with 10% FBS. […] After 72 h, the medium was replaced by fresh medium without stimuli, and cells were incubated for an additional 14 d to permit colony formation. The cells were fixed during 30 min with PFA 4% (v/v), washed and stained for 30 min at RT with a 5% solution of violet crystal for final colony counting. Three independent replicates were performed.

pancreatic cancer cells = test system: pancreatic cancer cells; design: method as in PMID 28490735; conditions: cited from earlier work
tumour cell lines = assay: MTT cytotoxicity assay, summary over the tumour cell line panel; assay type: cell-based, human
Experimental: Cytotoxicity assays were performed by using the MTT reduction method as described previously. Briefly, cancer cell lines were plated in flat-bottom 96-well plates at a cell concentration of 5 × 10^3 cells/well for the fastest growing lines, such as HEK293 and HT29 cells and 1 × 10^4 cells/well for more slowly growing lines, such as HCT116, H1975, BxPC-3, AsPC-1, B16-F10 and DAOY. Then, cells were incubated with the synthesised compounds at different concentrations (from 0.05 to 50 µM) in 200 µL with 10% FBS in RPMI 1640 or DMEM F12 culture medium at 37 °C for 72 h. Later, 10 µL of MTT were added at a final concentration of 0.5 mg/mL, incubated at 37 °C for 4 h, and then solubilised with 10% sodium dodecyl sulphate (SDS) in 0.1 mM HCl and incubated overnight at 37 °C. Formazan formation was measured at 570 nm in a multiwell plate reader (Cytation 5, Biotek Instruments, Winooski, VT, USA). Three independent biological replicates were performed.

HEK293 = assay: Cell cycle analysis (PI, flow cytometry), HEK293; assay type: cell-based, human; conditions: 19 µM, 24 h
Experimental: HT29 and HEK293 cells were plated in 6-well plates at a density of 2.0 × 10^5 cells/1.5 mL/well and grown overnight at 37 °C in a 5% CO2 humidified atmosphere. […] Aliquots of cells were collected, pelleted, washed, and fixed with ethanol (70% v/v) for at least 30 min at 4 °C. Cells were resuspended twice in PBS and, after centrifugation and elimination of the supernatant, they were finally resuspended in a PBS solution containing propidium iodide (PI; […], Invitrogen), RNase A ([…], Invitrogen). After a final incubation for 1 h in the dark at 37 °C, the PI signal was measured using a FACS Canto II Flow-cytometer (BD; Mountain View, CA) with a 488 nm excitation laser, captured and FACS DIVA was used as the acquisition software. The percentage of cells in each phase was analysed using the FCS Express v6 software. Two independent biological replicates were performed.

[1] = test system: Gli1 mRNA in Ptch1−/− mouse embryonic fibroblasts; assay: Gli1 mRNA (qRT-PCR) in Ptch1−/− MEFs; assay type: cell-based; conditions: increasing concentrations, 24 h
Experimental: HEK293T and Smo^−/−, Ptch^−/− MEFs cells were cultured in DMEM plus 10% FBS, 1% L-glutamine and antibiotics. Transient transfections were performed using DreamFectTM Gold transfection reagent (Oz Biosciences SAS, Marseille, France) following the manufacturer’s instructions and for varying periods of time depending on the experiment (24–72 h). […] Vehicle (DMSO) was used as control.
Total RNA was isolated with Trizol (Invitrogen/Life Technologies, Carlsbad, CA, USA) from Smo^−/− MEFs, Ptch^−/− MEFs or HT29 cells treated for 24 h and/or 48 h with 4s at different concentrations and reverse transcribed with the SensiFAST cDNA Synthesis Kit (Bioline Reagents Limited, London, UK). Quantitative real-time PCR (Q-PCR) analysis of Gli1 and housekeeping (HPRT, TBP, HMBS) mRNA levels was performed on each cDNA sample using the VIIA7 Real Time PCR System employing Assay-on-Demand Reagents (Life Technologies) as previously described. […] Each amplification reaction was performed in triplicate, the average of the three threshold cycles was used to calculate the amount of transcript in the sample (using SDS version 2.3 Software). mRNA quantification was expressed in arbitrary units as the ratio of the sample quantity to the quantity of the calibrator (ΔCt method). […]

CS(=O)(=O)c1ccc(C(=O)Nc2ccc(Cl)c(-c3ccccn3)c2)c(Cl)c1 [Vismodegib, reference compound]
colony formation HT-29 (HT29): less effective than 4s
concentration inducing apoptosis in pancreatic cancer cells (pancreatic cancer cells): greater than 100 µM

CCCCCCn1cnc2c(-c3ccc(OC(F)(F)F)cc3)nc(N3CCN(c4ccncc4)CC3)nc21 [Compound 4s, 9-Hexyl-2-(4-(pyridin-4-yl)piperazin-1-yl)-6-(4-(trifluoromethoxy)phenyl)-9H-purine]
selectivity for cancer cells compared to HEK293 control cells (tumour cell lines): 40 times
cytotoxicity in tumour cell lines (tumour cell lines; 50 µM, 72 h, MTT, tumour cell lines tested): more than 80%
IC50 (tumour cell lines; Homo sapiens, depending on the tumour cell line, 72 h, read-out: IC50 range over tumour cell lines): 1.3 to 15 µM
fold increase in cytotoxicity compared to vismodegib (tumour cell lines; from IC50 values): ~40 fold
changes in cell cycle, HEK293 (HEK293): did not observe any changes
GLI1 mRNA levels in Ptch1−/− MEFs [1]: significantly reduced mRNA levels of GLI1
melting point: 153 to 155 °C
